{"source": "ChEMBL document CHEMBL1201862", "about": "“PubChem BioAssay data set” (2004)", "experiment_in_all_cases": "DTP human tumour cell line panel, 48 h", "key": {"PC-3": {"system": "PC-3"}, "HCT-15": {"system": "HCT-15"}, "NCI-H23": {"system": "NCI-H23"}, "786-0": {"system": "786-0"}, "ACHN": {"system": "ACHN"}, "BT-549": {"system": "BT-549"}, "MCF7": {"system": "MCF7"}, "SR": {"system": "SR"}, "MDA-MB-231": {"system": "MDA-MB-231"}, "UACC-257": {"system": "UACC-257"}, "NCI-H460": {"system": "NCI-H460"}, "OVCAR-3": {"system": "OVCAR-3"}, "SF-268": {"system": "SF-268"}, "MDA-N": {"system": "MDA-N"}, "RPMI-8226": {"system": "RPMI-8226"}, "SF-539": {"system": "SF-539"}, "HOP-62": {"system": "HOP-62"}, "NCI-H522": {"system": "NCI-H522"}, "SK-MEL-5": {"system": "SK-MEL-5"}, "SNB-19": {"system": "SNB-19"}, "KM12": {"system": "KM12"}, "A498": {"system": "A498"}, "T47D": {"system": "T47D"}, "MOLT-4": {"system": "MOLT-4"}, "LOX IMVI": {"system": "LOX IMVI"}, "COLO 205": {"system": "COLO 205"}, "SK-OV-3": {"system": "SK-OV-3"}, "DU-145": {"system": "DU-145"}, "Malme-3M": {"system": "Malme-3M"}, "OVCAR-4": {"system": "OVCAR-4"}, "UACC-62": {"system": "UACC-62"}, "OVCAR-8": {"system": "OVCAR-8"}, "K562": {"system": "K562"}, "CAKI-1": {"system": "CAKI-1"}, "Hs-578T": {"system": "Hs-578T"}, "A549": {"system": "A549"}, "SK-MEL-28": {"system": "SK-MEL-28"}, "HOP-92": {"system": "HOP-92"}, "HCT-116": {"system": "HCT-116"}, "M14": {"system": "M14"}, "NCI/ADR-RES": {"system": "NCI/ADR-RES"}, "TK-10": {"system": "TK-10"}, "SW-620": {"system": "SW-620"}, "NCI-H226": {"system": "NCI-H226"}, "OVCAR-5": {"system": "OVCAR-5"}, "RXF 393": {"system": "RXF 393"}, "SN12C": {"system": "SN12C"}, "U-251": {"system": "U-251"}, "HT-29": {"system": "HT-29"}, "IGROV-1": {"system": "IGROV-1"}, "HL-60": {"system": "HL-60"}, "UO-31": {"system": "UO-31"}, "SF-295": {"system": "SF-295"}, "EKVX": {"system": "EKVX"}, "SK-MEL-2": {"system": "SK-MEL-2"}}, "note": "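Exposure lasted 48 hours, with cells grown in 96-well plates and compounds tested at five concentrations. At the GI50, growth is halved.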 Calls of active or inactive are those of the source. Cut-off read from the data, not from the text of the source: active = GI50 up to about 1.1 µM and inactive = higher."}
{"smiles": "O=C(OCc1ccccc1)N1CCCc2c(n(S(=O)(=O)c3ccccc3)c3ccccc23)C1", "values": [{"measurement": "GI50", "setting": "PC-3", "result": "> 100 µM (inactive)"}, {"measurement": "GI50", "setting": "HCT-15", "result": "> 100", "unit": "µM"}, {"measurement": "GI50", "setting": "NCI-H23", "result": "> 100 µM (inactive)"}, {"measurement": "GI50", "setting": "786-0", "result": "> 100 µM (inactive)"}, {"measurement": "GI50", "setting": "ACHN", "result": "> 100 µM (inactive)"}, {"measurement": "GI50", "setting": "BT-549", "result": "> 100 µM (inactive)"}, {"measurement": "GI50", "setting": "MCF7", "result": "> 100 µM (inactive)"}, {"measurement": "GI50", "setting": "SR", "result": "49.1 µM (inactive)"}, {"measurement": "GI50", "setting": "MDA-MB-231", "result": "> 100 µM (inactive)"}, {"measurement": "GI50", "setting": "UACC-257", "result": "> 100 µM (inactive)"}, {"measurement": "GI50", "setting": "NCI-H460", "result": "> 100 µM (inactive)"}, {"measurement": "GI50", "setting": "OVCAR-3", "result": "> 100 µM (inactive)"}, {"measurement": "GI50", "setting": "SF-268", "result": "> 100 µM (inactive)"}, {"measurement": "GI50", "setting": "MDA-N", "result": "> 100 µM (inactive)"}, {"measurement": "GI50", "setting": "RPMI-8226", "result": "> 100 µM (inactive)"}, {"measurement": "GI50", "setting": "SF-539", "result": "> 100 µM (inactive)"}, {"measurement": "GI50", "setting": "HOP-62", "result": "> 100 µM (inactive)"}, {"measurement": "GI50", "setting": "NCI-H522", "result": "29.1 µM (inactive)"}, {"measurement": "GI50", "setting": "SK-MEL-5", "result": "> 100 µM (inactive)"}, {"measurement": "GI50", "setting": "SNB-19", "result": "> 100 µM (inactive)"}, {"measurement": "GI50", "setting": "KM12", "result": "> 100 µM (inactive)"}, {"measurement": "GI50", "setting": "A498", "result": "> 100 µM (inactive)"}, {"measurement": "GI50", "setting": "T47D", "result": "14.2 µM (inactive)"}, {"measurement": "GI50", "setting": "MOLT-4", "result": "> 100 µM (inactive)"}, {"measurement": "GI50", "setting": "LOX IMVI", "result": "> 100 µM (inactive)"}, {"measurement": "GI50", "setting": "COLO 205", "result": "> 100 µM (inactive)"}, {"measurement": "GI50", "setting": "SK-OV-3", "result": "> 100 µM (inactive)"}, {"measurement": "GI50", "setting": "DU-145", "result": "> 100 µM (inactive)"}, {"measurement": "GI50", "setting": "Malme-3M", "result": "57.9 µM (inactive)"}, {"measurement": "GI50", "setting": "OVCAR-4", "result": "> 100 µM (inactive)"}, {"measurement": "GI50", "setting": "UACC-62", "result": "> 100 µM (inactive)"}, {"measurement": "GI50", "setting": "OVCAR-8", "result": "> 100 µM (inactive)"}, {"measurement": "GI50", "setting": "K562", "result": "> 100 µM (inactive)"}, {"measurement": "GI50", "setting": "CAKI-1", "result": "> 100 µM (inactive)"}, {"measurement": "GI50", "setting": "Hs-578T", "result": "78.7 µM (inactive)"}, {"measurement": "GI50", "setting": "A549", "result": "> 100 µM (inactive)"}, {"measurement": "GI50", "setting": "SK-MEL-28", "result": "> 100 µM (inactive)"}, {"measurement": "GI50", "setting": "HOP-92", "result": "> 100 µM (inactive)"}, {"measurement": "GI50", "setting": "HCT-116", "result": "> 100 µM (inactive)"}, {"measurement": "GI50", "setting": "M14", "result": "> 100 µM (inactive)"}, {"measurement": "GI50", "setting": "NCI/ADR-RES", "result": "> 100 µM (inactive)"}, {"measurement": "GI50", "setting": "TK-10", "result": "> 100 µM (inactive)"}, {"measurement": "GI50", "setting": "SW-620", "result": "> 100 µM (inactive)"}, {"measurement": "GI50", "setting": "NCI-H226", "result": "> 100 µM (inactive)"}, {"measurement": "GI50", "setting": "OVCAR-5", "result": "> 100 µM (inactive)"}, {"measurement": "GI50", "setting": "RXF 393", "result": "53.8 µM (inactive)"}, {"measurement": "GI50", "setting": "SN12C", "result": "> 100 µM (inactive)"}, {"measurement": "GI50", "setting": "U-251", "result": "> 100 µM (inactive)"}, {"measurement": "GI50", "setting": "HT-29", "result": "> 100 µM (inactive)"}, {"measurement": "GI50", "setting": "IGROV-1", "result": "> 100 µM (inactive)"}, {"measurement": "GI50", "setting": "HL-60", "result": "> 100 µM (inactive)"}, {"measurement": "GI50", "setting": "UO-31", "result": "> 100 µM (inactive)"}, {"measurement": "GI50", "setting": "SF-295", "result": "36.6 µM (inactive)"}, {"measurement": "GI50", "setting": "EKVX", "result": "> 100 µM (inactive)"}, {"measurement": "GI50", "setting": "SK-MEL-2", "result": "> 100 µM (inactive)"}]}
